The target of the data set is T1, monoamine oxidase-B (MAO-B) (Homo sapiens, UniProt P27338).
T1 sequence (P27338 1-520): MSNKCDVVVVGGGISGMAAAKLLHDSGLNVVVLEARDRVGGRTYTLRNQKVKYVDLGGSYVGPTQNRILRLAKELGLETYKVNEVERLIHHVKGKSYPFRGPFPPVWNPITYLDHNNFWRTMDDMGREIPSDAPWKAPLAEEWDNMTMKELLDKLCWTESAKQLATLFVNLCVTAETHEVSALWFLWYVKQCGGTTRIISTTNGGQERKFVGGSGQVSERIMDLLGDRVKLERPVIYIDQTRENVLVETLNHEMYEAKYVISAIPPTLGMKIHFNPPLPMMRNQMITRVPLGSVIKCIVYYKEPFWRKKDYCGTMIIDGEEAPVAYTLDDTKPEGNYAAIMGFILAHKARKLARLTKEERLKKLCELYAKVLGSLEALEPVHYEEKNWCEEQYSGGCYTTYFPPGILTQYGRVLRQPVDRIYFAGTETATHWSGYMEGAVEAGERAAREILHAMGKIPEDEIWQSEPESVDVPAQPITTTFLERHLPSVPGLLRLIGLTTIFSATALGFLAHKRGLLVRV
The following applies: cell-free system, dhBBR 100 μM, 30 min.

Experimental: The reaction system consisted of dhBBR (100 μM), MAO-B (0.2 mg/ml) and phosphate-buffered saline (PBS, pH = 7.4) in a final volume of 200 μl. The MAO-B was pre-incubated via centrifugation at 850 rpm at 37 °C for 5 min, and this step was followed by the addition of dhBBR. The reaction was terminated after 30 min by adding an equal volume of ice-cold acetonitrile and centrifuging at 14,000 g for 5 min. Ten microliters of the supernatant was injected into the HPLC instrument for analysis.

Take `COc1ccc2c(c1OC)CN1CCc3cc4c(cc3C1=C2)OCO4` [dhBBR, dihydroberberine]: the “reversion from dhBBR to BBR attributable to MAO-B” value is “approximately 10%”.

The values are drawn from article PMC4502414, “Transforming berberine into its intestine-absorbable form by the gut microbiota” (Scientific Reports, 2015).
